From BindingDB's records for doi:10.1016/j.bmcl.2009.04.023 (Banyu Pharmaceutical, 2009) come the findings set out here.

Sequence of Nociceptin receptor (P41146 whole entry): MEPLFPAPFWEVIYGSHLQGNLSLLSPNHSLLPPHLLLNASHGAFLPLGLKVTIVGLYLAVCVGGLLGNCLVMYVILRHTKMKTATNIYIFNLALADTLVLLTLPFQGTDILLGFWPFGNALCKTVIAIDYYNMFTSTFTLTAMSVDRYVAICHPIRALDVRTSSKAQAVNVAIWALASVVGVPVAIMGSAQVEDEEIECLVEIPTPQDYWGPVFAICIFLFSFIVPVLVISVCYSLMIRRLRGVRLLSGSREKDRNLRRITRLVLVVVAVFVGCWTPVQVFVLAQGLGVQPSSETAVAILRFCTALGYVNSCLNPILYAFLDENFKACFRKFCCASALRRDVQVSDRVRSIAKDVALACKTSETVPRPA

The assay has as its target Nociceptin receptor (Homo sapiens, UniProt P41146). Nature of the assay: In Vitro Binding Assay (IC50) and In Vitro Agonism/Antagonism Measurements (EC50/IC50). The conditions noted are these: pH 7.4; 37 °C. The protocol:
Compounds were tested for their inhibitory effects on ligand binding to the human ORL1 receptor. Bound and free radioligands are separated by filtration using a unifilter plate GF/C-96. The remaining radioactivity on the filter was counted using a TopCount-HTS (PerkinElmer). Specific binding of [125I][Tyr14]nociceptin is defined as the difference between total binding and nonspecific binding in the presence of 1 uM nociceptin. J-113397 was used as internal control across all assay plates for internal validation. IC50 values are calculated using GraphPad Prism. Agonist/antagonist activities were measured by the [35S]GTPgamma-S binding to proteins using membrane fractions of CHO cells expressing ORL1. Nonspecific binding is determined in the presence of 10 uM unlabeled GTPgammaS. Membrane-bound radioactivity is measured using a TopCount-HTS (PerkinElmer). Specific binding of [35S]GTPgammaS is determined as a difference between the control (in the presence of appropriate concentration of nociceptin), and the baseline (in the presence of DMSO instead of compound). EC50/IC50 values are calculated from % of specific binding in the presence of various concentration of the compound using GraphPad Prism 3.03.
The IC50 is the concentration at which inhibition is half-maximal. Low readings indicate inhibition by little substance, high ones a need for much substance. With `CCN1CCN(c2cc3[nH]c(C(=O)[C@]4(C)CC[C@@H](NC(=O)OC)CC4)nc3cc2Cl)CC1` [2-Cyclohexylcarbonylbenzimidazole, 7a], the IC50 came out at 7.5 nM.
With `CCN1CCN(c2cc3[nH]c(C(=O)[C@]4(C)CC[C@@H](NC(=O)OC)CC4)nc3cc2C)CC1` [2-Cyclohexylcarbonylbenzimidazole, 7b] the figure was 5.3 nM; with `CCN1CCN(c2cc3[nH]c(C(=O)[C@]4(C)CC[C@@](C)(O)CC4)nc3cc2Cl)CC1` [2-Cyclohexylcarbonylbenzimidazole, 7c], 1.3 nM; with `CCN1CCN(c2cc3[nH]c(C(=O)[C@]4(CC)CC[C@@](C)(O)CC4)nc3cc2Cl)CC1` [2-Cyclohexylcarbonylbenzimidazole, 7e], 2.4 nM.
The result for `CCN1CCN(c2cc3[nH]c(C(=O)C4(C)CCC(=O)CC4)nc3cc2Cl)CC1` [2-Cyclohexylcarbonylbenzimidazole, 9] reads 38 nM.
